# Measured values from patent US7727736B2, “Soluble phospholipids for use in clotting factor assays” (The University of North Carolina at Chapel Hill, priority 2003, dated 2010).
# Assays:
# [1] = biological target: T1, factor VIII (Homo sapiens, UniProt P00451); experiment: Chromogenic FVIII assay; assay type: biochemical; conditions: normal pooled plasma (100% factor VIII), varying C6PS
# T1 construct: using normal pooled plasma (100% factor VIII); from tissue; host or cells: normal pooled plasma
# Method: For the chromogenic […], a standard curve was prepared by diluting normal pooled plasma (which had 1 U/mL […] according to the certification sheets) into […] to give levels of 100% factor VIII, 75%, 50%, 25%, and 10% along with the factor VIII deficient plasma, which has 0% factor VIII.
# Two mixtures were prepared. Mixture #1 consisted of thrombin—3 nM, factor IXa—3 nM, factor X—7.2 μg/mL, calcium—12 mM in a buffer of 20 mM Tris (pH 7.9), 150 mM NaCl. Also included in Mixture #1 were either lipid vesicles (lipid unilamellar vesicles; “LUV”)—20 μM or C6PS—2,625 μM. Mixture #2 consisted of hirudin—60 nM and Pefachrome FXa—1.8 mM in a buffer of 20 mM Tris (pH 7.9), 150 mM NaCl.
# Factor VIII levels were assayed by adding 25 μL plasma to 2000 μL of buffer. 50 μL of the diluted plasma, 100 μL Mixture #1, and […] were incubated at 37° C. for 3 minutes. […] Finally, 50 μL of Mixture #2 was added to diluted plasma+Mixture #1 and the reaction was monitored at 405 nm for 5 minutes. The rate is the change in absorbance between 30 seconds and 120 seconds expressed as mOD/minute. […]
# The effect of varying C6PS levels was also monitored as described above using normal pooled plasma (100% factor VIII), except that the concentration of C6PS in Mixture #1 was varied by serial dilution into buffer before being added to the final Mixture #1.
# [2] = biological target: T2, factor Xa binding to factor Va2 (Homo sapiens, UniProt P00742+P12259); experiment: Prothrombinase assembly monitored by initial rate of thrombin formation (DAPA fluorescence, stopped flow), FVa2; assay type: biochemical; conditions: in presence of 400 μM C6PS
# T2 construct: Human prothrombin and factor Xa; tissue Hematologic Technologies Inc. (factor Xa only); factor Xa purchased
# Method: The initial rate of thrombin formation was monitored by DAPA fluorescence. Stopped flow fluorescence measurements were performed at 37° C. with final mixing chamber concentrations of 1 μM prothrombin, 5 μM DAPA, 1 nM factor Xa, 400 μM C6PS and various concentrations of factor Va2 (Panel A) or Va1 (Panel B) in 50 mM Tris-HCl (pH 7.5), 150 mM NaCl, 5 mM CaCl2. The initial rates were fit to a single binding site model as described herein to determine the Kd^eff of factor Xa binding to factor Va2 in presence of 400 μM C6PS (2.4±0.3 nM). […] The abrupt appearance of aggregates at 700 μM C6PS defines the critical micelle concentration under these experimental conditions.
# Fluorescence Stopped-Flow Measurements. The rates of thrombin formation from either MzIIa or Pre2 (with equimolar fragment 1.2), or of thrombin plus MzIIa formation from human prothrombin, were estimated from the time-dependent fluorescence change of DAPA bound to the activation products. […] The calculation of rates from measurements of initial fluorescence intensity (F0) and intensity at the completion of the reaction (F∞) is well-established (Nesheim and Mann (1983) supra; Wu, et al. (2002) supra).
# Initial rates of prothrombin activation by FXa as monitored by DAPA fluorescence are shown in FIG. 2 as a function of added FVa2 (Panel A) and FVa1 (Panel B) in the presence of 400 μM C6PS. […]
# [3] = pure C6PS; cited from earlier work
# T1 sequence (P00451 20-391 limits assumed): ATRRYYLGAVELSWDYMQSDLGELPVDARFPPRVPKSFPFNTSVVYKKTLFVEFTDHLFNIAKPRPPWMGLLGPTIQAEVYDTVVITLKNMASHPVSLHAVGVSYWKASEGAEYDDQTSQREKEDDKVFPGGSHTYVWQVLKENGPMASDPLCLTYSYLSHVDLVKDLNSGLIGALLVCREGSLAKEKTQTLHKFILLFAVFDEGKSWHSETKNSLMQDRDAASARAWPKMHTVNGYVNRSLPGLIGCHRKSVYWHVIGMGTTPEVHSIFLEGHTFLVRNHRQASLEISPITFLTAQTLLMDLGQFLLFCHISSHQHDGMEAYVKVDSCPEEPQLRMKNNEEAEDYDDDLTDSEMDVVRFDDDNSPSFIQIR
# T1 sequence (P00451 392-759 limits assumed): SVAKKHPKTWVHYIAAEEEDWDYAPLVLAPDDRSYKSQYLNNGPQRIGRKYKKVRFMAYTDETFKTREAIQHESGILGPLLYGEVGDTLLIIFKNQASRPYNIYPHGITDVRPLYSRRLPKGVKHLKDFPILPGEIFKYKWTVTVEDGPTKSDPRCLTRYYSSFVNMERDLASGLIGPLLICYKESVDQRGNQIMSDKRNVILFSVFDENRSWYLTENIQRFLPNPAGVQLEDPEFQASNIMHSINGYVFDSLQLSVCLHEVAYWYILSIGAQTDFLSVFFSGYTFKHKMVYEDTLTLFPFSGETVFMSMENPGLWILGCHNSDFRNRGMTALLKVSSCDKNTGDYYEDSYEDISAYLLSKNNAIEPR
# T1 sequence (P00451 1709-2351 limits assumed): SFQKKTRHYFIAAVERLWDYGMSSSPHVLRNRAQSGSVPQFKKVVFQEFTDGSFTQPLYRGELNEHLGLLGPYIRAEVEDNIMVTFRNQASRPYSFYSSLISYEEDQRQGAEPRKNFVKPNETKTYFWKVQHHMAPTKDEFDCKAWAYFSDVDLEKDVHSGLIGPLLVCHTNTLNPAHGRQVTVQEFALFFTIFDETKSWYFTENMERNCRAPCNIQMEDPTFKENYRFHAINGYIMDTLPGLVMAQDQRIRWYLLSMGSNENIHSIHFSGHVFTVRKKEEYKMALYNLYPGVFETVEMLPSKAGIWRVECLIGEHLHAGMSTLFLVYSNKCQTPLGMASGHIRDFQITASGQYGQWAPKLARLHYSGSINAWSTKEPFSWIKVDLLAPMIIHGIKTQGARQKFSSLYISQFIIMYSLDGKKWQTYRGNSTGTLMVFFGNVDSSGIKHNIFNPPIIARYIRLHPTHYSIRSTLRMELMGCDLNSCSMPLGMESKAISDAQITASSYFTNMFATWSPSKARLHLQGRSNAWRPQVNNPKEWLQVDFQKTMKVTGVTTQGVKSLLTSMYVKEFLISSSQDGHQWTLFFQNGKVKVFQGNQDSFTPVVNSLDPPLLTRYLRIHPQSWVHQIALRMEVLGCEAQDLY
# T1 sequence (P00740 47-191 partner limits assumed): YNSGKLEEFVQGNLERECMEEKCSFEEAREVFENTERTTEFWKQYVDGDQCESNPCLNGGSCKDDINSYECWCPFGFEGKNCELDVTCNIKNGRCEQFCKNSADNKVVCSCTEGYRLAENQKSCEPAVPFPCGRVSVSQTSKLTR
# T1 sequence (P00740 227-461 partner limits assumed): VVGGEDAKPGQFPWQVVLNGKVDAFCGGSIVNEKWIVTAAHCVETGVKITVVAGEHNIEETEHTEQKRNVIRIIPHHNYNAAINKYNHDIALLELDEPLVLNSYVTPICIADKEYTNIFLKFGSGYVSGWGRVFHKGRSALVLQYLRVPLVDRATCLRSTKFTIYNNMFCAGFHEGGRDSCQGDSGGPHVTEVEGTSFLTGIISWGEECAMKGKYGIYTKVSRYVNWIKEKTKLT
# T2 sequence (P00742 41-179 limits assumed): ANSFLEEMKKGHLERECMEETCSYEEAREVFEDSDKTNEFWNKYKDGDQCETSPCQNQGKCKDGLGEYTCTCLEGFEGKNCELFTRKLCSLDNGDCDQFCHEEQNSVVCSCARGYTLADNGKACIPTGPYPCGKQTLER
# T2 sequence (P00742 235-488 limits assumed): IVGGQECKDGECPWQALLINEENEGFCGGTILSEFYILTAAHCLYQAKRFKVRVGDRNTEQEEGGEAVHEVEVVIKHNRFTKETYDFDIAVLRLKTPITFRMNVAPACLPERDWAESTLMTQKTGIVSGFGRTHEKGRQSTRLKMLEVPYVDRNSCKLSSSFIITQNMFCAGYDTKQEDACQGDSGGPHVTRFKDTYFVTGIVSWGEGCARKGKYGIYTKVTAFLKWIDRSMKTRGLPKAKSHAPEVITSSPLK
# T2 sequence (P12259 29-737 limits assumed): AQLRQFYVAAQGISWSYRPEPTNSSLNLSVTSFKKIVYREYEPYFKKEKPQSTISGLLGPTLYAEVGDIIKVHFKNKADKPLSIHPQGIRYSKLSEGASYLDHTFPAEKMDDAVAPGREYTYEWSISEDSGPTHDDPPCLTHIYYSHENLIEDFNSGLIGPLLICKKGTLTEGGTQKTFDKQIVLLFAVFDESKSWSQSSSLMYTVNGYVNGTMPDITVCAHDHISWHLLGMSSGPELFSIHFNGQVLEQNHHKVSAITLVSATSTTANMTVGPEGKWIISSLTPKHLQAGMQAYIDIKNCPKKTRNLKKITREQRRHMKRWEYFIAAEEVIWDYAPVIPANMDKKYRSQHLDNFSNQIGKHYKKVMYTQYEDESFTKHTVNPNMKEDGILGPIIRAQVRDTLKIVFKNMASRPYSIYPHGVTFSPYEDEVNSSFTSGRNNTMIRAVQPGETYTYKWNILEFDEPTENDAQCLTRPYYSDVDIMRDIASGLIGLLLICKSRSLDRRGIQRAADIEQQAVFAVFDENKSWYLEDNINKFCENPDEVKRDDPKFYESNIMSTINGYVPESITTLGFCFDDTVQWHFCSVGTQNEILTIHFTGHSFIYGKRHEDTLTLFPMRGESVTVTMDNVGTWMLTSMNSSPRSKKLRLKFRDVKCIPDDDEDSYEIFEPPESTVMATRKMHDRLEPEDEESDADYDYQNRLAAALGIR
# T2 sequence (P12259 1574-2224 limits assumed): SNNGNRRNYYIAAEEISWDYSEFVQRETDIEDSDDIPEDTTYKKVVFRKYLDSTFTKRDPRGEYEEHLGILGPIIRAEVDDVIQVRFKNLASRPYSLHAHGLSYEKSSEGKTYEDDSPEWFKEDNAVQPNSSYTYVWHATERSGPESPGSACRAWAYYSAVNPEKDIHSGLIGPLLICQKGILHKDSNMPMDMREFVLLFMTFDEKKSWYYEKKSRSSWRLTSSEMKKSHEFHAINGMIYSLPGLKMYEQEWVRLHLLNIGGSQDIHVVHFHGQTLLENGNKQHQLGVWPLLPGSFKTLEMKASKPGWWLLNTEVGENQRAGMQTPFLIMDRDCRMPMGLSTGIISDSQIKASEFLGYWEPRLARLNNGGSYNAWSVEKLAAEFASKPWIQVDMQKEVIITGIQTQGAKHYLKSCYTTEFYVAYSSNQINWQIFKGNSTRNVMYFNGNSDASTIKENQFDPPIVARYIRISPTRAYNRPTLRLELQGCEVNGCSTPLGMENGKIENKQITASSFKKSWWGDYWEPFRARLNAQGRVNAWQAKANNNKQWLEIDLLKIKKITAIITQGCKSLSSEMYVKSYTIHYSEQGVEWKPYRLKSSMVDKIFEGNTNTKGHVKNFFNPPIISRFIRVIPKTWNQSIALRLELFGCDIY
structure (smiles),measurement,setting,value
"CCCCCC(=O)OC[C@H](COP(=O)(O)OC[C@H](N)C(=O)O)OC(=O)CCCCC [C6PS, 1,2-dicaproyl-sn-glycero-3-phospho-L-serine]",rate in FVIII chromogenic assay versus C6PS concentration,[1],saturated
same,fold tighter FVa2 interaction with FXa than FVa1,[2],at least 300 fold
same,monomers in minimal micelle predicted for C6PS,[3],~200 monomers
